{"source": "PubChem BioAssay AID1919015", "about": "(Molecular Pharmacology Branch, DTP, NCI, 2023)", "tested_on": "OVCAR-5 complex spheroids with HUVEC/MSC, viability, % test/control", "experiment": "Anticancer human tumor OVCAR-5 cell line growth inhibition [AhR];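 for all read-outs here: spheroids exposed to compounds for 7 days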;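 for viability, T/C: 100% = DMSO vehicle control wells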", "details": "for IC50: curve of first compound; for viability, T/C: stronger effect = lower value", "summary_of_the_method": "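Complex tumor spheroids co-cultured with HUVEC and human MSC stroma; AhR antagonists tested in combination with standard-of-care and investigational agents. Top concentration at or near clinical Cmax (else 10 microM), half-log dilutions; growth expressed as percent test/control.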", "data": [{"smiles": "CC1(C)CCC(CN2CCN(c3ccc(C(=O)NS(=O)(=O)c4ccc(NCC5CCOCC5)c([N+](=O)[O-])c4)c(Oc4cnc5[nH]ccc5c4)c3)CC2)=C(c2ccc(Cl)cc2)C1", "note": "+ Cc1ccccc1N=Nc1ccc(NC(=O)c2ccnn2C)c(C)c1", "values": [{"measurement": "IC50", "setting": "second compound 0.1 µM", "result": "> 10", "unit": "µM"}, {"measurement": "IC50", "setting": "second compound 0.316 µM", "result": "> 10", "unit": "µM"}, {"measurement": "IC50", "setting": "second compound 1 µM", "result": "> 10", "unit": "µM"}, {"measurement": "IC50", "setting": "second compound 3.16 µM", "result": "> 10", "unit": "µM"}, {"measurement": "IC50", "setting": "second compound 10 µM", "result": "> 10", "unit": "µM"}, {"measurement": "viability, T/C", "setting": "second compound 0.1 µM, first compound 0.0316 µM", "result": 102, "unit": "%"}, {"measurement": "viability, T/C", "setting": "second compound 0.1 µM, first compound 0.1 µM", "result": 101, "unit": "%"}, {"measurement": "viability, T/C", "setting": "second compound 0.1 µM, first compound 0.316 µM", "result": 102, "unit": "%"}, {"measurement": "viability, T/C", "setting": "second compound 0.1 µM, first compound 1 µM", "result": 95.7, "unit": "%"}, {"measurement": "viability, T/C", "setting": "second compound 0.1 µM, first compound 3.16 µM", "result": 99.2, "unit": "%"}, {"measurement": "viability, T/C", "setting": "second compound 0.1 µM, first compound 10 µM", "result": 52.7, "unit": "%"}, {"measurement": "viability, T/C", "setting": "second compound 0.316 µM, first compound 0.0316 µM", "result": 102, "unit": "%"}, {"measurement": "viability, T/C", "setting": "second compound 0.316 µM, first compound 0.1 µM", "result": 106, "unit": "%"}, {"measurement": "viability, T/C", "setting": "second compound 0.316 µM, first compound 0.316 µM", "result": 106, "unit": "%"}, {"measurement": "viability, T/C", "setting": "second compound 0.316 µM, first compound 1 µM", "result": 103, "unit": "%"}, {"measurement": "viability, T/C", "setting": "second compound 0.316 µM, first compound 3.16 µM", "result": 105, "unit": "%"}, {"measurement": "viability, T/C", "setting": "second compound 0.316 µM, first compound 10 µM", "result": 53, "unit": "%"}, {"measurement": "viability, T/C", "setting": "second compound 1 µM, first compound 0.0316 µM", "result": 102, "unit": "%"}, {"measurement": "viability, T/C", "setting": "second compound 1 µM, first compound 0.1 µM", "result": 113, "unit": "%"}, {"measurement": "viability, T/C", "setting": "second compound 1 µM, first compound 0.316 µM", "result": 107, "unit": "%"}, {"measurement": "viability, T/C", "setting": "second compound 1 µM, first compound 1 µM", "result": 112, "unit": "%"}, {"measurement": "viability, T/C", "setting": "second compound 1 µM, first compound 3.16 µM", "result": 104, "unit": "%"}, {"measurement": "viability, T/C", "setting": "second compound 1 µM, first compound 10 µM", "result": 56.9, "unit": "%"}, {"measurement": "viability, T/C", "setting": "second compound 3.16 µM, first compound 0.0316 µM", "result": 103, "unit": "%"}, {"measurement": "viability, T/C", "setting": "second compound 3.16 µM, first compound 0.1 µM", "result": 115, "unit": "%"}, {"measurement": "viability, T/C", "setting": "second compound 3.16 µM, first compound 0.316 µM", "result": 108, "unit": "%"}, {"measurement": "viability, T/C", "setting": "second compound 3.16 µM, first compound 1 µM", "result": 112, "unit": "%"}, {"measurement": "viability, T/C", "setting": "second compound 3.16 µM, first compound 3.16 µM", "result": 109, "unit": "%"}, {"measurement": "viability, T/C", "setting": "second compound 3.16 µM, first compound 10 µM", "result": 54.2, "unit": "%"}, {"measurement": "viability, T/C", "setting": "second compound 10 µM, first compound 0.0316 µM", "result": 109, "unit": "%"}, {"measurement": "viability, T/C", "setting": "second compound 10 µM, first compound 0.1 µM", "result": 107, "unit": "%"}, {"measurement": "viability, T/C", "setting": "second compound 10 µM, first compound 0.316 µM", "result": 105, "unit": "%"}, {"measurement": "viability, T/C", "setting": "second compound 10 µM, first compound 1 µM", "result": 108, "unit": "%"}, {"measurement": "viability, T/C", "setting": "second compound 10 µM, first compound 3.16 µM", "result": 105, "unit": "%"}, {"measurement": "viability, T/C", "setting": "second compound 10 µM, first compound 10 µM", "result": 57.3, "unit": "%"}]}, {"smiles": "CCN(c1cc(-c2ccc(CN3CCOCC3)cc2)cc(C(=O)NCc2c(C)cc(C)[nH]c2=O)c1C)C1CCOCC1", "note": "+ Cc1ccccc1N=Nc1ccc(NC(=O)c2ccnn2C)c(C)c1", "values": [{"measurement": "IC50", "setting": "second compound 0.1 µM", "result": "> 3", "unit": "µM"}, {"measurement": "IC50", "setting": "second compound 0.316 µM", "result": "> 3", "unit": "µM"}, {"measurement": "IC50", "setting": "second compound 1 µM", "result": "> 3", "unit": "µM"}, {"measurement": "IC50", "setting": "second compound 3.16 µM", "result": "> 3", "unit": "µM"}, {"measurement": "IC50", "setting": "second compound 10 µM", "result": "> 3", "unit": "µM"}, {"measurement": "viability, T/C", "setting": "second compound 0.1 µM, first compound 0.00949 µM", "result": 105, "unit": "%"}, {"measurement": "viability, T/C", "setting": "second compound 0.1 µM, first compound 0.03 µM", "result": 106, "unit": "%"}, {"measurement": "viability, T/C", "setting": "second compound 0.1 µM, first compound 0.0949 µM", "result": 102, "unit": "%"}, {"measurement": "viability, T/C", "setting": "second compound 0.1 µM, first compound 0.3 µM", "result": 101, "unit": "%"}, {"measurement": "viability, T/C", "setting": "second compound 0.1 µM, first compound 0.949 µM", "result": 95, "unit": "%"}, {"measurement": "viability, T/C", "setting": "second compound 0.1 µM, first compound 3 µM", "result": 101, "unit": "%"}, {"measurement": "viability, T/C", "setting": "second compound 0.316 µM, first compound 0.00949 µM", "result": 107, "unit": "%"}, {"measurement": "viability, T/C", "setting": "second compound 0.316 µM, first compound 0.03 µM", "result": 109, "unit": "%"}, {"measurement": "viability, T/C", "setting": "second compound 0.316 µM, first compound 0.0949 µM", "result": 107, "unit": "%"}, {"measurement": "viability, T/C", "setting": "second compound 0.316 µM, first compound 0.3 µM", "result": 102, "unit": "%"}, {"measurement": "viability, T/C", "setting": "second compound 0.316 µM, first compound 0.949 µM", "result": 102, "unit": "%"}, {"measurement": "viability, T/C", "setting": "second compound 0.316 µM, first compound 3 µM", "result": 103, "unit": "%"}, {"measurement": "viability, T/C", "setting": "second compound 1 µM, first compound 0.00949 µM", "result": 112, "unit": "%"}, {"measurement": "viability, T/C", "setting": "second compound 1 µM, first compound 0.03 µM", "result": 110, "unit": "%"}, {"measurement": "viability, T/C", "setting": "second compound 1 µM, first compound 0.0949 µM", "result": 111, "unit": "%"}, {"measurement": "viability, T/C", "setting": "second compound 1 µM, first compound 0.3 µM", "result": 115, "unit": "%"}, {"measurement": "viability, T/C", "setting": "second compound 1 µM, first compound 0.949 µM", "result": 107, "unit": "%"}, {"measurement": "viability, T/C", "setting": "second compound 1 µM, first compound 3 µM", "result": 110, "unit": "%"}, {"measurement": "viability, T/C", "setting": "second compound 3.16 µM, first compound 0.00949 µM", "result": 115, "unit": "%"}, {"measurement": "viability, T/C", "setting": "second compound 3.16 µM, first compound 0.03 µM", "result": 114, "unit": "%"}, {"measurement": "viability, T/C", "setting": "second compound 3.16 µM, first compound 0.0949 µM", "result": 115, "unit": "%"}, {"measurement": "viability, T/C", "setting": "second compound 3.16 µM, first compound 0.3 µM", "result": 109, "unit": "%"}, {"measurement": "viability, T/C", "setting": "second compound 3.16 µM, first compound 0.949 µM", "result": 109, "unit": "%"}, {"measurement": "viability, T/C", "setting": "second compound 3.16 µM, first compound 3 µM", "result": 112, "unit": "%"}, {"measurement": "viability, T/C", "setting": "second compound 10 µM, first compound 0.00949 µM", "result": 106, "unit": "%"}, {"measurement": "viability, T/C", "setting": "second compound 10 µM, first compound 0.03 µM", "result": 103, "unit": "%"}, {"measurement": "viability, T/C", "setting": "second compound 10 µM, first compound 0.0949 µM", "result": 104, "unit": "%"}, {"measurement": "viability, T/C", "setting": "second compound 10 µM, first compound 0.3 µM", "result": 105, "unit": "%"}, {"measurement": "viability, T/C", "setting": "second compound 10 µM, first compound 0.949 µM", "result": 99.9, "unit": "%"}, {"measurement": "viability, T/C", "setting": "second compound 10 µM, first compound 3 µM", "result": 98.2, "unit": "%"}]}]}
